The values below come from patent US20030032612A1 (priority 1997, published 2003).

Holding throughout (type): cell-based, E. coli
The test system of one experiment is AG 102 mar mutant. Kind of experiment: Gradient plate assay, MIC of antibiotics in AG 102 with plasmids. The settings on record: Escherichia coli. Here is the method: To establish further the inhibitory efficacy of antisense marA sequences, KMN23 (the same DNA vector described above, containing both the marR and the marA genes cloned in the antisense direction) was also expressed in the presence of various antibiotics (tetracycline (Tet), chloramphenicol (Cml), ampicillin (Amp) and rifampicin (Rif). The effect of KMN23 was assessed by measuring cell growth inhibition by the gradient plate method as described in Example 9. The results are shown in TABLE 3.
(§1) Bacterial susceptibility to tetracycline hydrochloride, chloramphenicol, ampicillin, kanamycin, rifampin, nalidixic acid and norfloxacin was assayed by the gradient plate method. (Microbiology: Including Immunology and Molecular Genetics (3rd ed.)(Davis et al. eds.(1980)J. P. Lippincott Co., Philadelphia, Pa.).

Experiment [1] deals with ML308-225-C2 (Mar mutant). Kind of experiment: Augmentation of bactericidal activity of norfloxacin by oligonucleotides, colony counts.
The next experiment has as its system ML308-C2. Kind of experiment: MIC on antibiotic gradient plates in Mar mutant ML308-C2. The following applies: Escherichia coli, read-out: MIC of norfloxacin. Here is the method: Antibiotic resistant mutants of ML308-225 (Rahman et al. (1991) Antisense Res. Dev. 1:319-327) were grown and maintained at 30° C. in LB broth. These mutants were selected by spreading washed overnight cultures onto a LB agar plate containing chloramphenicol (5 μg/ml, Sigma, St. Louis, Mo.) and incubated at 30° C for 48-72 hours. Single colonies appearing after 48 hours were picked for further study.
One mutant showing increased minimal inhibitory concentrations (hereinafter referred to as MIC) to tetracycline, chloramphenicol, ampicillin, nalidixic acid, and norfloxacin was selected and designated ML308-C2. Sequencing confirmed a C® T substitution in amino acid 117 of marR, which results in a truncated MarR protein. […] Northern analysis using a marA DNA probe confirmed that ML308-C2 over expresses marA and was a Mar mutant (unpublished data).
as §1

Structures are written as SMILES. Several values for one entry are separate records, joined by “and”; a condition that tells them apart may be missing. Equal values may be shown once.

The MIC is the smallest concentration in the dilution series that meets the test's criterion for growth inhibition. `CC1(C)S[C@@H]2[C@H](NC(=O)[C@H](N)c3ccccc3)C(=O)N2[C@H]1C(=O)O` [Amp, ampicillin]: the MIC in the experiment with AG 102 mar mutant stood at 17.7 µg/mL.

Turning to `O=C(N[C@H](CO)[C@H](O)c1ccc([N+](=O)[O-])cc1)C(Cl)Cl` [Cml, chloramphenicol], the MIC in the experiment on AG 102 mar mutant came out at 34.2 µg/mL.

In the case of `CCn1cc(C(=O)O)c(=O)c2cc(F)c(N3CCNCC3)cc21` [Norfloxacin, norfloxacin], the activity at 0.5 µg/mL in experiment [1] (Escherichia coli, norfloxacin 0.5 µg/mL alone, 1 hour, Table 5, read-out: % OF CONTROL (untreated cells)) was determined as 65%. For the same compound, the “% OF CONTROL CELLS” value in experiment [1] (norfloxacin 0.5 μg/ml alone, oligo 1284 0 μM, duplicate experiments) was 71% and 57%. The minimum inhibitory concentration (MIC) in the experiment on ML308-C2 worked out at 0.5 µg/mL.

As to `CO[C@H]1/C=C/O[C@@]2(C)Oc3c(C)c(O)c4c(O)c(c(/C=N/N5CCN(C)CC5)c(O)c4c3C2=O)NC(=O)/C(C)=C\C=C\[C@H](C)[C@H](O)[C@@H](C)[C@@H](O)[C@@H](C)[C@H](OC(C)=O)[C@@H]1C` [Rif, rifampicin], the minimum inhibitory concentration (MIC) with AG 102 mar mutant worked out at 8.8 µg/mL.

In the case of `CN(C)[C@@H]1C(O)=C(C(N)=O)C(=O)[C@@]2(O)C(O)=C3C(=O)c4c(O)cccc4[C@@](C)(O)[C@H]3C[C@@H]12` [Tet, tetracycline], the MIC in the experiment with AG 102 mar mutant is 12.5 µg/mL.
